target: T1, mutant G12C K-RAS (Homo sapiens, UniProt P01116, G12C); test: covalent adduct formation (CAF) with mutant G12C K-RAS; assay type: binding; details: Table 6; 10 μM, 1 h
T1 construct: made in house; host or cells: E. coli BL21
Procedure: Embodiments disclosed herein are further illustrated by the following examples in Tables 1-4 and the Examples hereinbelow. The Tables indicate the compound number, structure, the observed mass spectral molecular weight peak, and covalent adduct formation (CAF) with a mutant G12C K-RAS after 60 minutes at a concentration of 10 micromolar.

% CAF @ 10 μM,1 h [%]	Compound
0	C=CC(=O)N1C[C@H](C)N(c2nc(=O)n3c4c(c(-c5ccccc5C(F)(F)F)c(Cl)cc24)OCC3)C[C@H]1C [Example 197, 7-((2S,5R)-4-acryloyl-2,5-dimethylpiperazin-1-yl)-9-chloro-10-(2-(trifluoromethyl)phenyl)-2,3-dihydro-5H-[1,4]oxazino[2,3,4-ij]quinazolin-5-one]
100	C=CC(=O)N1CCN(c2nc(=O)n3c4c(c(-c5c(O)cccc5F)c(Cl)cc24)OC[C@H]3CN2CCOCC2)[C@@H](C)C1 [Example 198, (3R,10S)-7-((S)-4-acryloyl-2-methylpiperazin-1-yl)-9-chloro-10-(2-fluoro-6-hydroxyphenyl)-3-(morpholinomethyl)-2,3-dihydro-5H-[1,4]oxazino[2,3,4-ij]quinazolin-5-one]
0	C=CC(=O)N1CCN(c2nc(=O)n3c4c(c(-c5c(O)cccc5F)c(Cl)cc24)OC[C@H]3CN2CCOCC2)[C@@H](C)C1 [Example 199, (3R,10R)-7-((S)-4-acryloyl-2-methylpiperazin-1-yl)-9-chloro-10-(2-fluoro-6-hydroxyphenyl)-3-(morpholinomethyl)-2,3-dihydro-5H-[1,4]oxazino[2,3,4-ij]quinazolin-5-one]
0	C=CC(=O)N1C[C@H](C)N(c2nc(=O)n3c4c(c(-c5c(F)cccc5C(F)F)ccc24)OCC3)C[C@H]1C [Example 200, 7-((2S,5R)-4-acryloyl-2,5-dimethylpiperazin-l-yl)-10-(2-(difluoromethyl)-6-fluorophenyl)-2,3-dihydro-5H-1,4|oxazino[2,3,4-ij]quinazolin-5-one]
0	C=CC(=O)N1C[C@H](C)N(c2nc(=O)n3c4c(c(-c5c(F)ccc6[nH]cnc56)ccc24)OCC3)C[C@H]1C [Example 201, 7-((2S,5R)-4-acryloyl-2,5-dimethylpiperazin-1-yl)-10-(5-fluoro-1H-benzo[d]imidazol-4-yl)-2,3-dihydro-5H-[1,4]oxazino[2,3,4-ij]quinazolin-5-one]
84.3	C=CC(=O)N1C[C@H](C)N(c2nc(=O)n3c4c(c(-c5ccc(F)cc5F)c(Cl)cc24)OC[C@@H]3CN2CCOCC2)C[C@H]1C [Example 203, (3S)-7-((2S,5R)-4-acryloyl-2,5-dimethylpiperazin-1-yl)-9-chloro-10-(2,4-difluorophenyl)-3-(morpholinomethyl)-2H-[1,4]oxazino[2,3,4-ij]quinazolin-5(3H)-one]
82	C=CC(=O)N1C[C@H](C)N(c2nc(=O)n3c4c(c(-c5ccc(F)cc5F)c(Cl)cc24)OC[C@H]3CN2CCOCC2)C[C@H]1C [Example 204, (3R)-7-((2S,5R)-4-acryloyl-2,5-dimethylpiperazin-1-yl)-9-chloro-10-(2,4-difluorophenyl)-3-(morpholinomethyl)-2H-[1,4]oxazino[2,3,4-ij]quinazolin-5(3H)-one]
10.7	C=CC(=O)N1C[C@H](C)N(c2nc(=O)n3c4c(c(-c5cc(Cl)ccc5F)c(Cl)cc24)OC[C@H]3CN2CCC(F)(F)C2)C[C@H]1C [Example 206, (3R)-7-((2S,5R)-4-acryloyl-2,5-dimethylpiperazin-1-yl)-9-chloro-10-(5-chloro-2-fluorophenyl)-3-((3,3-difluoropyrrolidin-1-yl)methyl)-2,3-dihydro-5H-[1,4]oxazino[2,3,4-ij]quinazolin-5-one]
77.4	C=CC(=O)N1C[C@H](C)N(c2nc(=O)n3c4c(c(-c5cc(Cl)ccc5F)c(Cl)cc24)OC[C@@H]3CN2CCOCC2)C[C@H]1C [Example 211, (3S)-7-((2S,5R)-4-acryloyl-2,5-dimethylpiperazin-1-yl)-9-chloro-10-(5-chloro-2-fluorophenyl)-3-(morpholinomethyl)-2,3-dihydro-5H-[1,4]oxazino[2,3,4-ij]quinazolin-5-one]
59.8	C=CC(=O)N1C[C@H](C)N(c2nc(=O)n3c4c(c(-c5cc(Cl)ccc5F)c(Cl)cc24)OC[C@H]3CN2CCOCC2)C[C@H]1C [Example 212, (3R)-7-((2S,5R)-4-acryloyl-2,5-dimethylpiperazin-1-yl)-9-chloro-10-(5-chloro-2-fluorophenyl)-3-(morpholinomethyl)-2H-[1,4]oxazino[2,3,4-ij]quinazolin-5(3H)-one]
90.6	C=CC(=O)N1C[C@H](C)N(c2nc(=O)n3c4c(c(-c5ccc(F)cc5F)c(Cl)cc24)OC[C@H]3CCN2CCOCC2)C[C@H]1C [Example 213, (3R)-7-((2S,5R)-4-acryloyl-2,5-dimethylpiperazin-1-yl)-9-chloro-10-(2,4-difluorophenyl)-3-(2-morpholinoethyl)-2H-[1,4]oxazino[2,3,4-ij]quinazolin-5(3H)-one]
60.9	C=CC(=O)N1C[C@H](C)N(c2nc(=O)n3c4c(c(-c5cc(Cl)ccc5F)c(Cl)cc24)OC[C@@H]3CN2CCC(F)(F)C2)C[C@H]1C [Example 214, (3S)-7-((2S,5R)-4-acryloyl 2,5-dimethylpiperazin-1-yl)-9-chloro-10-(5-chloro-2-fluorophenyl)-3-((3,3-difluoropyrrolidin-1-yl)methyl)-2,3-dihydro-5H [1,4]oxazino[2,3,4-ij]quinazolin-5-one]
91.2	C=CC(=O)N1C[C@H](C)N(c2nc(=O)n3c4c(c(-c5ccc(F)cc5F)c(Cl)cc24)OC[C@@H]3CCCN2CCOCC2)C[C@H]1C [Example 215, (3S)-7-((2S,5R)-4-acryloyl-2,5-dimethylpiperazin-1-yl)-9-chloro-10-(2,4-difluorophenyl)-3-(3-morpholinopropyl)-2,3-dihydro-5H-[1,4]oxazino[2,3,4-ij]quinazolin-5-one]
73.8	C=CC(=O)N1C[C@H](C)N(c2nc(=O)n3c4c(c(-c5cc(Cl)ccc5F)c(Cl)cc24)OC[C@H]3CCCN2CCOCC2)C[C@H]1C [Example 216, (3R)-7-((2S,5R)-4-acryloyl-2,5-dimethylpiperazin-1-yl)-9-chloro-10-(5-chloro-2-fluorophenyl)-3-(3-morpholinopropyl)-2,3-dihydro-5H-[1,4]oxazino[2,3,4-ij]quinazolin-5-one]
83.4	C=CC(=O)N1C[C@H](C)N(c2nc(=O)n3c4c(c(-c5ccc(F)cc5F)c(Cl)cc24)OC[C@@H]3CCN2CCOCC2)C[C@H]1C [Example 217, (3S)-7-((2S,5R)-4-acryloyl-2,5-dimethylpiperazin-1-yl)-9-chloro-10-(2,4-difluorophenyl)-3-(2-morpholinoethyl)-2,3-dihydro-5H-[1,4]oxazino[2,3,4-ij]quinazolin-5-one]
95.6	C=CC(=O)N1C[C@H](C)N(c2nc(=O)n3c4c(c(-c5ccc(F)cc5F)c(Cl)cc24)OC[C@H]3CCCN2CCOCC2)C[C@H]1C [Example 218, (3R)-7-((2S,5R)-4-acryloyl-2,5-dimethylpiperazin-1-yl)-9-chloro-10-(2,4-difluorophenyl)-3-(3-morpholinopropyl)-2,3-dihydro-5H-[1,4]oxazino[2,3,4-ij]quinazolin-5-one]
0	C=CC(=O)N1C[C@H](C)N(c2nc(=O)n3c4c(c(-c5c(C)ccc6[nH]nnc56)ccc24)OCC3)C[C@H]1C [Example 219, 7-((2S,5R)-4-acryloyl-2,5-dimethylpiperazin-1-yl)-10-(5-methyl-1H-benzo[d][1,2,3]triazol-4-yl)-2,3-dihydro-5H-[1,4]oxazino[2,3,4-ij]quinazolin-5-one]
0	C=CC(=O)N1C[C@H](C)N(c2nc(=O)n3c4c(c(-c5c(O)cccc5F)c(Cl)cc24)OC[C@@H]3CN2CCC(F)(F)C2)C[C@H]1C [Example 220, (3S,10R)-7-((2S,5R)-4-acryloyl-2,5-dimethylpiperazin-1-yl)-9-chloro-3-((3,3-difluoropyrrolidin-1-yl)methyl)-10-(2-fluoro-6-hydroxyphenyl)-2,3-dihydro-5H-[1,4]oxazino[2,3,4-ij]quinazolin-5-one]
70.9	C=CC(=O)N1C[C@H](C)N(c2nc(=O)n3c4c(c(-c5c(O)cccc5F)c(Cl)cc24)OC[C@@H]3CN2CCC(F)(F)C2)C[C@H]1C [Example 221, (3S,10S)-7-((2S,5R)-4-acryloyl-2,5-dimethylpiperazin-1-yl)-9-chloro-3-((3,3-difluoropyrrolidin-1-yl)methyl)-10-(2-fluoro-6-hydroxyphenyl)-2,3-dihydro-5H-[1,4]oxazino[2,3,4-ij]quinazolin-5-one]
0	C=CC(=O)N1C[C@H](C)N(c2nc(=O)n3c4c(c(-c5c(F)ccc6[nH]nnc56)ccc24)OCC3)C[C@H]1C [Example 223, 7-((2S,5R)-4-acryloyl-2,5-dimethylpiperazin-1-yl)-10-(5-fluoro-1H-benzo[d][1,2,3]triazol-4-yl)-2,3-dihydro-5H-[1,4]oxazino[2,3,4-ij]quinazolin-5-one]
0	C=CC(=O)N1C[C@H](C)N(c2nc(=O)n3c4c(c(-c5c(F)ccc6cc[nH]c(=O)c56)ccc24)OCC3)C[C@H]1C [Example 224, 7-((2S,5R)-4-acryloyl-2,5-dimethylpiperazin-1-yl)-10-(7-fluoro-1-oxo-1,2-dihydroisoquinolin-8-yl)-2,3-dihydro-5H-[1,4]oxazino[2,3,4-ij]quinazolin-5-one]
0	C=CC(=O)N1C[C@H](C)N(c2nc(=O)n3c4c(c(-c5c(F)ccc6c5C(=O)NC6)ccc24)OCC3)C[C@H]1C [Example 231, 7-((2S,5R)-4-acryloyl-2,5-dimethylpiperazin-1-yl)-10-(5-fluoro-3-oxoisoindolin-4-yl)-2,3-dihydro-5H-[1,4]oxazino[2,3,4-ij]quinazolin-5-one]
82.4	C=CC(=O)N1C[C@H](C)N(c2nc(=O)n3c4c(c(-c5ccc(F)cc5F)c(Cl)cc24)OC[C@@H]3CN2CCC2)C[C@H]1C [Example 232, (3S)-7-((2S,5R)-4-acryloyl-2,5-dimethylpiperazin-1-yl)-3-(azetidin-1-ylmethyl)-9-chloro-10-(2,4-difluorophenyl)-2H-[1,4]oxazino[2,3,4-ij]quinazolin-5(3H)-one]
